Results as given in PubChem BioAssay AID200 (DTP/NCI, 2004).
Toxic doses and inconclusive results are not listed. Rule for the calls: active = survival T/C of 150% or more; inactive = T/C below 125% in these data.

Tested on: B6C3F1 mice, B16 melanoma ip, median survival T/C
Experiment: NCI In Vivo Anticancer Drug Screen. Data for tumor model B16 Melanoma (intraperitoneal) in B6C3F1 mice
Settings: endpoint: median survival time, schedule: Q01DX009 (ip), vehicle: saline, higher = longer survival
Summary of the method: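 Mice bearing transplanted tumor were dosed with compound or vehicle, and survival was recorded. Activity is expressed as the treated-group measurement (T) divided by the vehicle control measurement (C).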

Measured: T/C

NC(CCCNc1ccc(O)cc1)C(=O)O (stereo not drawn)
inactive: dose: 75.0 mg/kg/injection 122 % of control | dose: 100.0 mg/kg/injection 98 % of control | dose: 150.0 mg/kg/injection 106 % of control
